In patent US6814958B1, “Food compositions, compositions for oral cavity and medicinal compositions for preventing or treating periodontosis and method for preventing or treating periodontosis” (priority 1998, dated 2004):

Legend:
HGF cells and HGK cells = details: of the medium with no nicotine added; 0.05% nicotine
Description: HGF cells and HGK cells were inoculated into separate 96-well plates for tissue culture in an amount of 5,000 cells/well. These HGF cells and HGK cells were incubated at 37° C. for 1 day. Then, the incubated HGF cells were diluted in a Dulbecco modification MEM culture medium containing the test substance, 0.05% nicotine and 1% fetal bovine serum, while the incubated HGK cells were diluted in a culture medium for epithelium containing the test substance, 0.05% nicotine and 1% fetal bovine serum. The cells were incubated on the media for 5 days, and the cell proliferation activities of the cells were observed. Meanwhile, as a control was used the culture medium to which only nicotine was added. After the test substances were cultivated for 5 days, the cells were fixed in a 10% formalin solution and staining in crystal violet. The absorbance of the resulting cells at 590 nm was determined to calculate the population of the cells. The relative proportion of the test substances when the value of the control (culture medium to which only nicotine was added) was 100% was obtained.

[1] = system: collagenase production by human gingiva fibroblasts and human gingival epithelium cells; details: of the medium with no nicotine added; 0.05% nicotine
Description: Measurements were carried out by the method described in Test Example 2. However, to the culture medium was added 0.05% nicotine, together with the test substance and 1% fetal bovine serum. The collagenase activity of the culture medium supernatant of the control (the culture medium containing only nicotine) was regarded as 100%, and the relative proportion of the collagenase activity when the test substances were added was determined.

[2] = target: T1, gelatinase derived from HGF cells (Homo sapiens, UniProt P08253); assay: Inhibitory effect on gelatinase derived from HGF cells (FITC-labelled type IV collagen); assay type: biochemical; details: 42° C; read-out: 50% inhibiting concentration, Gelatinase HGF (converted)
T1 construct: endogenous in cells; host or cells: human gingiva fibroblasts (HGF), serum-free conditioned medium; purified on gelatin Sepharose 4B
T1 sequence (P08253 110-660): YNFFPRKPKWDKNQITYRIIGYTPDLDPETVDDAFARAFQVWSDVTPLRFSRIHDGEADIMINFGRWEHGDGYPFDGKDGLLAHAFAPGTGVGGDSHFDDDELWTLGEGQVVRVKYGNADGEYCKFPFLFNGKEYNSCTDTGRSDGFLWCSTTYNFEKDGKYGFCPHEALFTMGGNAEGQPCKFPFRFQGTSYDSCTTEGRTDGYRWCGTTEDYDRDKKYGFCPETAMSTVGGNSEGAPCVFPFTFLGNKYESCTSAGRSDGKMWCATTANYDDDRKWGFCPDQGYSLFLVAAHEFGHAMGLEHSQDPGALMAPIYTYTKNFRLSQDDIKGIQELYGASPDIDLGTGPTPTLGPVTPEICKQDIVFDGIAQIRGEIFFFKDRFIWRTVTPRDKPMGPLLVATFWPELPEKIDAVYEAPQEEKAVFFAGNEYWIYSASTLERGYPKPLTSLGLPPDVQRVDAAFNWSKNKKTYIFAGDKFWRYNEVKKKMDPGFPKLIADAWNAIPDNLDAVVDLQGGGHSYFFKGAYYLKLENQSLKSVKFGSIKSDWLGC
Description: The measurement method was the same as the above method for measuring the inhibitory activity on the collagenase (2-1). However, the reaction temperature was set at 42° C. The measurement was also carried out on tetracycline by the same method.

[3] = target: T2, collagenase derived from human gingiva fibroblasts (HGF cell) (Homo sapiens, UniProt P03956); assay: Inhibitory effect on collagenase derived from HGF cells (FITC-labelled type I collagen, method of Nagai et al.); assay type: biochemical; details: 37° C, 4 hours; control free of test substance = 100%; read-out: 50% inhibiting concentration, Collagenase HGF (converted)
T2 construct: endogenous in cells; host or cells: human gingiva fibroblasts (HGF), serum-free conditioned medium; purified on CM Sepharose and zinc chelating Sepharose
T2 sequence (P03956 100-469): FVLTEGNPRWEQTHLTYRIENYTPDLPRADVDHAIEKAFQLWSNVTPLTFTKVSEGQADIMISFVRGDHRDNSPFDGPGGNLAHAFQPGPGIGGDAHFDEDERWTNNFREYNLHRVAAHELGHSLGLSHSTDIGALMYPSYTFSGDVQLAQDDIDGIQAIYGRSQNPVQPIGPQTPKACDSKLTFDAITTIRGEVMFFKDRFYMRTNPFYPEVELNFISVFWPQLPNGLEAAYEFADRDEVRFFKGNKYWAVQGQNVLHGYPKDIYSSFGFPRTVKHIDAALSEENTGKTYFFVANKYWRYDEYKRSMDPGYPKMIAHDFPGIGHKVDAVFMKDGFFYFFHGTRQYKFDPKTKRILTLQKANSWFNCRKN
Description: The collagenase derived from human gingiva fibroblasts (hereinafter abbreviated as “HGF cell”) for use in this test was prepared in the following manner: human procollagenase which was produced in Dulbecco modification MEM culture medium of non-blood serum using the HGF cells was refined using CM Sepharose™ (manufactured by Pharmacia Company) and zinc chelating Sepharose™ (manufactured by Pharmacia Company). The resulting substance was dissolved in a buffer solution and then was activated. The activation was carried out by incubating using aminophenyl acetic acid mercury (manufactured by Sigma Co.) as an activator at 37° C. for 4 hours.
The measurement of the inhibitory effects on collagenase of the extract containing the natural polyphenol of the above 1-1 was conducted by determining the collagenase activity of the extract. […] Specifically, 40 μl of activated human collagenase (2U/ml), 50 μg of the matrix and a test substance which was dissolved in 40 μl of an assay buffer were mixed. The mixture was allowed to react at 37° C for 4 hours. The collagenase activity of the control (free of the test substance) was regarded as 100%.

Structure (SMILES)	reduction of cell proliferation by addition of nicotine (HGF cells and HGK cells)	increase rate of collagenase production by addition of nicotine [1]	IC50 [2]	IC50 [3]
CN1CCCC1c1cccnc1 (stereo not shown) [nicotine]	52%	380%		
CN(C)[C@@H]1C(O)=C(C(N)=O)C(=O)[C@@]2(O)C(O)=C3C(=O)c4c(O)cccc4[C@@](C)(O)[C@H]3C[C@@H]12 [Tetracycline]			19.6 µM	5.63 µM
